The text below walks through data of PMC7406636, “In vivo and in silico characterization of apocynin in reducing organ oxidative stress: A pharmacokinetic and pharmacodynamic study” (Pharmacology Research & Perspectives, 2020).

One series has as its system Nox2. Description: Brain Nox2 expression by immunofluorescence, HFD mouse model. In kind it is in vivo. Conditions: HFD brain sections, apocynin 5 mmol/L in drinking water, vs HFD. How it is done:
The experiments were performed exactly as described previously. ^23 Midbrain (containing hippocampus and ventral tegmental area regions) cryosections were used for the experiments. Primary antibodies were used at 1:250 dilution. Bovine serum albumin (2%) was used in the place of primary antibodies as a negative control. Biotin‐conjugated secondary antibody was used at 1:1000 dilution. Specific binding of antibodies was detected by streptavidin‐Cy3. Images were captured using a Nikon fluorescence microscope (Eclipse Ti2‐E). Fluorescence intensities were quantified as described above.

The nature of series [1]: Body weight in HFD-induced obesity and accelerated aging mouse model. The settings on record: HFD 16 weeks, apocynin 5 mmol/L in drinking water, vs HFD without apocynin. The class given is in vivo. As for the experimental part: Apocynin was supplied in drinking water (5 mmol/L) for the treatment group. Body weights were measured weekly. Mice were sacrificed at 11 months of age and organs were harvested for further experiments. […] Male mice at 7 months of age were randomly assigned (n = 6/per group) to a HFD: 45% kcal fat, 20% kcal protein and 35% kcal carbohydrate (Special Diets Services), or a NCD: 9.3% kcal fat, 25.9% kcal protein, and 64.8% kcal carbohydrate (LabDiet Ltd) for 16 weeks. Apocynin was supplied in drinking water (5 mmol/L). Body weights were measured weekly. Mice (at 11 months) were fasted 8 hours before being sacrificed by an overdose of pentobarbital. The body weights were recorded and organs were harvested.

On the set-up of series [2]: method as in PMID 23455672. The settings on record: cited from earlier work.
Details of series [3]: method as in PMID 25140304. Conditions: rats, intraperitoneal injection, urine collected at 20 hours; cited from earlier work.
Series [4] concerns ROS production on brain sections. Description: In situ ROS production by DHE fluorescence on brain sections after iv injection. In kind it is in vivo, mouse. The settings on record: brain sections harvested at 15 minutes after iv injection. As for the experimental part: ROS production was measured using tissue homogenates by three complementary techniques: lucigenin (5 µmol/L)‐chemiluminescence (Molecular Devices); DHE (2 µmol/L) fluorescence on brain tissue sections, and brain tissue lipid peroxidation by malondialdehyde (MDA) assay as described previously. ^5 The specificity of detection of O2·‐ was confirmed by adding tiron (10 mmol/L), a non‐enzymatic O2·‐ scavenger. The enzymatic sources of O2·‐ production were identified using inhibitors targeting nitric oxide synthase (L‐N^G‐Nitro arginine methyl ester, L‐NAME, 100 μmol/L), the mitochondrial complex‐1 enzymes (rotenone, 50 μmol/L), xanthine oxidase (oxypurinol, 250 μmol/L), flavo‐proteins (diphenyleneiodonium, DPI, 20 μmol/L), or superoxide dismutase (SOD) (200 U/mL). The DHE fluorescence was captured using a Nikon fluorescence microscope (Eclipse Ti2‐E). The fluorescence intensity was quantified from at least three random images per section with three sections/per sample.

In series [5] the test system is O2·‐ production in tissue homogenates. Kind of series: O2·- production in tissue homogenates by lucigenin-chemiluminescence after iv injection (PD profile). In kind it is in vivo, mouse. Conditions: iv 5 mg/kg. How it is done:
All studies were performed in accordance with the protocols approved by the Home Office under the Animals (Scientific Procedures) Act 1986, UK. For the PKPD study, male CD1 mice (Charles River Ltd) at 12 weeks of age with a body weight range between 25 and 30 g were used for the study. Mice were fasted 12 hours before bolus iv injection of apocynin at 5 mg/kg body weight (dosing volume 5 mL/kg) via a lateral tail vein. Control mice were injected with vehicle (solvent of apocynin) at each time points. Four mice/per time points were sacrificed at 0, 1, 2.5, 5, 15, 30, 60 minutes and then at 3, 6, 12, and 24 hours after iv injection of apocynin. Blood samples were collected and centrifuged at 2000 g, 4°C for 10 minutes for plasma collection. Urine samples were collected from bladders. Tissues were harvested for further experiments. ROS production was measured using tissue homogenates by three complementary techniques: lucigenin (5 µmol/L)‐chemiluminescence (Molecular Devices); DHE (2 µmol/L) fluorescence on brain tissue sections, and brain tissue lipid peroxidation by malondialdehyde (MDA) assay as described previously. ^5 The specificity of detection of O2·‐ was confirmed by adding tiron (10 mmol/L), a non‐enzymatic O2·‐ scavenger. The enzymatic sources of O2·‐ production were identified using inhibitors targeting nitric oxide synthase (L‐N^G‐Nitro arginine methyl ester, L‐NAME, 100 μmol/L), the mitochondrial complex‐1 enzymes (rotenone, 50 μmol/L), xanthine oxidase (oxypurinol, 250 μmol/L), flavo‐proteins (diphenyleneiodonium, DPI, 20 μmol/L), or superoxide dismutase (SOD) (200 U/mL). The DHE fluorescence was captured using a Nikon fluorescence microscope (Eclipse Ti2‐E). The fluorescence intensity was quantified from at least three random images per section with three sections/per sample.

Series [6] is described as follows: LogBB calculation, Log (Cbrain/Cplasma). In kind it is in vivo, mouse. As for the experimental part:
LogBB of apocynin was calculated as described previously ^22 using the equation: LogBB = Log (Cbrain/Cplasma). We used the values from 1 to 30 minutes detected in both plasma and brain tissues for LogBB calculation since apocynin plasma concentration was fallen to ~10 ng/mL (limit of quantification) after 30 minutes of iv injection, n = 3 mice/per time point.

Turning to `COc1cc(C(C)=O)ccc1O` [Apocynin, 4‐hydroxy‐3‐methoxyacetophenone], in the series on Nox2, the “effect on brain Nox2 expression” value is “significantly reduced”. Further, the “effect on HFD-induced increase in body weight” value in series [1] is listed as “significantly reduced”. Also, the pKa value in series [2] is given as 8.17. The “apocynin recovered in unchanged form in urine” value in series [3] was 80%. For the same compound, the “effect on DHE fluorescence (in situ ROS production)” value in series [4] was “inhibited effectively”. In series [5] (Mus musculus, 1 min, brain homogenates, starting at 1 minute), this compound had an inhibition at 5 mg/kg of 60.4 ± 25.4%. In series [5] (brain homogenates), the “duration of inhibition of brain O2·- production” value is on record as “up to 60 minutes”, the “start of inhibition of brain O2·- production” value came to 1 min, the “time at which inhibition of brain O2·- production became significant” value came out at 2.5 min and the “time at which inhibition of brain O2·- production disappeared” value was determined as 3 h. In series [5] (heart homogenates), the “duration of inhibition of heart O2·- production” value is on record as ~ 60 minutes, the “start of inhibition of heart O2·- production” value was found to be 1 min, the “time at which inhibition of heart O2·- production became significant” value was 2.5 min and the “time at which inhibition of heart O2·- production disappeared” value is 3 h. In series [5] (liver homogenates), the “duration of inhibition of liver O2·- production” value is on record as ~ 60 minutes and the “time at which inhibition of liver O2·- production disappeared” value was 3 h. Further, the “onset of inhibition of liver O2·- production” value in series [5] (liver homogenates, vs time 0 control) was at most 1 min. Moreover, the LogBB in series [6] (at 1 minute after iv injection) is recorded as −0.1. In addition, the LogBB at 30 min in series [6] (male, CD1, mouse, brain/plasma, 5 mg/kg, at 30 minutes after iv injection) was 1.
